Among the test systems are HL-60(TB) leukemia; RXF 393 renal; SNB-75 CNS; SF-268 CNS; HCT-116 colon; SF-295 CNS; SNB-19 CNS.
Holding throughout (experiment): NCI tumour cell line growth inhibition, 48 h

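Step 1: Grow cells in 96-well plates. Step 2: Expose to compound for 48 hours at 5 concentrations. Step 3: Interpolate endpoints linearly; if unreached, use highest concentration. Abbreviation: GI50, concentration required for 50% inhibition of growth. TGI: concentration producing complete growth inhibition.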

For `Cc1nc2ccccc2c(=O)n1-c1ccccc1F`, the TGI with HL-60(TB) leukemia, in the assay with RXF 393 renal, in the assay with SNB-75 CNS, in the assay with SF-268 CNS, in the assay on HCT-116 colon and with SF-295 CNS was greater than 100 µM in each case. For the same molecule, in the assay on SNB-19 CNS, the TGI was greater than 100 µM.

Turning to `CCOC(=O)CCn1[nH]c(=O)c(Cl)c(Cl)c1=O`, the TGI in the assay with HL-60(TB) leukemia, with RXF 393 renal, in the assay on SNB-75 CNS, in the assay on SF-268 CNS, with HCT-116 colon and in the assay with SF-295 CNS was greater than 100 µM throughout. This molecule also displayed a TGI in the assay with SNB-19 CNS greater than 100 µM.

Turning to `N.N.O=C([O-])P(=O)([O-])[O-].[Na+].[Pt+4]`, the GI50 in the assay with HL-60(TB) leukemia, in the assay with RXF 393 renal, in the assay on SNB-75 CNS, with SF-268 CNS, in the assay with HCT-116 colon and with SF-295 CNS was greater than 100 µM throughout. Further, the GI50 with SNB-19 CNS was greater than 100 µM. For the same molecule, the TGI in the assay on HL-60(TB) leukemia, with RXF 393 renal, in the assay with SNB-75 CNS, with SF-268 CNS, in the assay on HCT-116 colon and in the assay on SF-295 CNS was greater than 100 µM throughout. In the assay with SNB-19 CNS, this molecule came in with a TGI greater than 100 µM.

Regarding `O=C(Nc1ccc(Cl)cc1Cl)C(=O)C(C(=O)c1ccncc1)C1OC(=O)c2ccccc21` (centres undefined), the TGI with HL-60(TB) leukemia, in the assay with RXF 393 renal, with SNB-75 CNS, in the assay on SF-268 CNS, with HCT-116 colon and with SF-295 CNS was greater than 100 µM in each case. In addition, the TGI in the assay with SNB-19 CNS is greater than 100 µM.

Consider `COc1ccc(CNc2nc3cc(C(F)(F)F)ccc3nc2C)cc1OC`, for which the TGI with HL-60(TB) leukemia was 50.6 µM; in the assay on SNB-75 CNS, 61.4 µM; in the assay with SF-268 CNS it was greater than 100 µM; in the assay on HCT-116 colon, greater than 100 µM; in the assay with SF-295 CNS it was greater than 100 µM; in the assay on SNB-19 CNS, greater than 100 µM.

On to `CC(C)c1cc2c(O)c(c1)Cc1cc(C(C)C)cc(c1O)Cc1cc(C(C)C)cc(c1O)Cc1cc(C(C)C)cc(c1O)C2`, for which the TGI with HL-60(TB) leukemia, in the assay with RXF 393 renal, in the assay with SNB-75 CNS, in the assay with SF-268 CNS, in the assay on HCT-116 colon and in the assay with SF-295 CNS was greater than 100 µM each time. In the assay with SNB-19 CNS, this molecule returned a TGI greater than 100 µM.

On to `COC(=O)C(=O)C(C(=O)C=C(C)C)C(=O)C(=O)Nc1ccc(C)cc1C` (centres undefined), for which the TGI in the assay with HL-60(TB) leukemia, in the assay on RXF 393 renal, with SNB-75 CNS, with SF-268 CNS, in the assay on HCT-116 colon and with SF-295 CNS was greater than 100 µM throughout. The TGI in the assay with SNB-19 CNS was greater than 100 µM.

For `COc1cccc(N2C(=O)[C@H]3CC(C)c4c([nH]c5ccccc45)[C@H]3C2=O)c1` (some centres undefined), the TGI is greater than 100 µM in the assay on HL-60(TB) leukemia; 38.8 µM in the assay on RXF 393 renal; 42.1 µM in the assay on SNB-75 CNS; greater than 100 µM in the assay with SF-268 CNS; 67.6 µM with SF-295 CNS; greater than 100 µM with SNB-19 CNS.

Take `Cc1[nH]c2ccccc2c1C1Cc2ccccc2N1C(=O)/C(Cl)=C/c1ccccc1` (centres undefined): the TGI was greater than 100 µM in the assay with HL-60(TB) leukemia; 89 µM in the assay with RXF 393 renal; 99.6 µM in the assay on SNB-75 CNS; greater than 100 µM in the assay on SF-268 CNS; greater than 100 µM in the assay with HCT-116 colon; greater than 100 µM with SF-295 CNS. This molecule also had a TGI in the assay with SNB-19 CNS greater than 100 µM.

Regarding `N#CCC(=O)NC1C2CC3CC(C2)CC1C3` (centres undefined), the TGI in the assay on HL-60(TB) leukemia stood at 61.6 µM; in the assay with RXF 393 renal, 30.2 µM; in the assay on SNB-75 CNS, 33.5 µM; in the assay on SF-268 CNS it was 35.7 µM; in the assay on HCT-116 colon, 29.2 µM; in the assay on SF-295 CNS it was 32 µM. In the assay on SNB-19 CNS, this molecule displayed a TGI of 32.5 µM.

Turning to `COC(=O)C(=Cc1cc(OC)c(OC)c(OC)c1-c1cc2c(cc1C(C)=O)OCO2)C(=O)OC`, the TGI with HL-60(TB) leukemia worked out at 172 µM; in the assay with RXF 393 renal, 63.7 µM; with SF-268 CNS, 133 µM; with HCT-116 colon, 62.5 µM; with SF-295 CNS, 102 µM; in the assay with SNB-19 CNS, 69.6 µM.

Take `COc1ccc(-c2cc(=O)c3ccccc3[nH]2)c(OC)c1`: the TGI with HL-60(TB) leukemia, in the assay with RXF 393 renal, with SNB-75 CNS, in the assay with SF-268 CNS, with HCT-116 colon and with SF-295 CNS was greater than 100 µM each time. In the assay with SNB-19 CNS, this molecule registered a TGI greater than 100 µM.

With `CN(C)C(c1ccccc1)C(O)c1ccccc1` (centres undefined), the TGI with HL-60(TB) leukemia, in the assay on RXF 393 renal, in the assay with SNB-75 CNS, in the assay with SF-268 CNS, in the assay with SF-295 CNS and with SNB-19 CNS was greater than 100 µM throughout.

Turning to `OC/C=C(\I)CCCOCOCc1ccccc1`, the TGI in the assay with HL-60(TB) leukemia was 35.8 µM; in the assay on RXF 393 renal, 72.3 µM; with SNB-75 CNS, greater than 100 µM; in the assay with SF-268 CNS it was greater than 100 µM; in the assay on HCT-116 colon, greater than 100 µM; in the assay with SF-295 CNS, greater than 100 µM. The molecule also registered a TGI in the assay with SNB-19 CNS greater than 100 µM.

For the molecule `CCOC(=O)C(Cc1cn(S(=O)(=O)c2ccccc2)c2ccccc12)(NC(C)=O)C(=O)OCC`, the TGI in the assay with HL-60(TB) leukemia was 41.5 µM; in the assay with SNB-75 CNS, 33.3 µM; with SF-268 CNS, greater than 100 µM; in the assay with HCT-116 colon it was 95.8 µM; with SF-295 CNS, greater than 100 µM; in the assay on SNB-19 CNS, greater than 100 µM.

Take `C/C(=C1/CCC/C(=C(/C)c2ccccc2)C1=O)c1ccccc1`: the TGI in the assay on HL-60(TB) leukemia was 27.9 µM; in the assay with RXF 393 renal, 47.6 µM; in the assay with SNB-75 CNS it was greater than 100 µM; in the assay on SF-268 CNS it was greater than 100 µM; with HCT-116 colon, 55.5 µM; with SF-295 CNS it was greater than 100 µM. In addition, in the assay with SNB-19 CNS, the TGI is greater than 100 µM.

For `Fc1ccc(C2SCc3nc4ccccc4n32)cc1Cl` (centres undefined), the TGI in the assay with HL-60(TB) leukemia was 47.6 µM; in the assay on RXF 393 renal it was 50 µM; in the assay on SF-268 CNS, greater than 100 µM; with SF-295 CNS, 98.1 µM; with SNB-19 CNS it was greater than 100 µM.

In the case of `Cc1ccc(-c2cc(=O)c3cc(C)c(C)c(C(=O)O)c3o2)cc1C`, the TGI in the assay with HL-60(TB) leukemia, in the assay with RXF 393 renal, in the assay with SNB-75 CNS, in the assay on HCT-116 colon, in the assay with SF-295 CNS and in the assay with SNB-19 CNS was greater than 100 µM each time.

Take `N#CCc1ccc(C(C#N)/C(CCCC(=O)Nc2cccc([N+](=O)[O-])c2)=N/NC(N)=S)cc1` (centres undefined): the TGI in the assay with HL-60(TB) leukemia, in the assay with RXF 393 renal, in the assay with SNB-75 CNS, in the assay on SF-268 CNS, in the assay on HCT-116 colon and with SF-295 CNS was greater than 100 µM throughout. This molecule displayed a TGI with SNB-19 CNS greater than 100 µM.

On to `CC(=O)N1C/C(=C\c2ccc(N(C)C)cc2)C(=O)/C(=C/c2ccc(N(C)C)cc2)C1`, for which the TGI was greater than 100 µM with HL-60(TB) leukemia; greater than 100 µM in the assay with RXF 393 renal; 49.4 µM in the assay with SNB-75 CNS; greater than 100 µM in the assay on SF-268 CNS; greater than 100 µM in the assay with HCT-116 colon; greater than 100 µM with SF-295 CNS. In addition, the TGI with SNB-19 CNS was greater than 100 µM.

For the molecule `c1cc[c]([Pb]([c]2ccccc2)[c]2ccccc2)cc1`, the GI50 is 41.9 µM in the assay on HL-60(TB) leukemia; 6.8 µM in the assay on SNB-75 CNS; 7.34 µM with SF-268 CNS; 10.5 µM in the assay on HCT-116 colon; 21.9 µM in the assay with SF-295 CNS; 16.5 µM with SNB-19 CNS. Also, the TGI is greater than 100 µM with HL-60(TB) leukemia; 45 µM in the assay on SNB-75 CNS; 50.7 µM in the assay with SF-268 CNS; 27.1 µM in the assay with HCT-116 colon; 58.3 µM in the assay on SF-295 CNS; 38.7 µM in the assay on SNB-19 CNS.

Turning to `CCc1ccc(Nc2ccc([N+](=O)[O-])cc2[N+](=O)[O-])cc1`, the TGI in the assay on HL-60(TB) leukemia, with RXF 393 renal, in the assay on SNB-75 CNS, in the assay on HCT-116 colon and in the assay with SF-295 CNS was greater than 100 µM each time.

Take `COc1ccc(/C(Cl)=C(\C=O)c2ccc([N+](=O)[O-])cc2)cc1`: the TGI in the assay on HL-60(TB) leukemia is 10.7 µM; in the assay with RXF 393 renal, 38.6 µM; with SNB-75 CNS, 30.9 µM; with SF-268 CNS, 92.3 µM; in the assay with SF-295 CNS, 34.6 µM; in the assay with SNB-19 CNS it was greater than 31.6 µM.

For the molecule `O=C1NC2OCC(O)C(O)C2O1` (centres undefined), the TGI with HL-60(TB) leukemia, with SNB-75 CNS, in the assay with SF-268 CNS, in the assay on HCT-116 colon, with SF-295 CNS and with SNB-19 CNS was greater than 100 µM in each case.

Consider `CC(C)c1ccc(C(c2ccc(OCC(=O)O)cc2)c2ccc(C(C)C)cc(=O)c2O)c(O)c(=O)c1`, for which the TGI with HL-60(TB) leukemia amounted to 15 µM; in the assay with RXF 393 renal it was 27.2 µM; in the assay on SNB-75 CNS, 16.2 µM; in the assay with HCT-116 colon, 14.1 µM; in the assay on SF-295 CNS, 55.1 µM; in the assay with SNB-19 CNS, 28 µM.

Consider `COc1cccc(/C=C2\C(=O)N(C(=O)c3ccc(NC(C)=O)cc3)N=C2C)c1`, for which the TGI in the assay on SNB-75 CNS, in the assay with SF-268 CNS, in the assay on HCT-116 colon, in the assay with SF-295 CNS and with SNB-19 CNS was greater than 100 µM each time.

With `COC(=O)c1cc(C)c(C)c2c1NC(=O)CNC2=O`, the TGI with HL-60(TB) leukemia, in the assay on RXF 393 renal, in the assay on SNB-75 CNS, with HCT-116 colon and in the assay on SF-295 CNS was greater than 100 µM throughout.

The values are drawn from PubChem BioAssay (NCI).
